{"source": "patent US10561638B2", "about": "“Methods for treating dependence” (Biotie Therapies, Inc., priority 2007, dated 2020)", "biological_target": "T1, human dopamine β-hydroxylase (Homo sapiens, UniProt P09172)", "T1 construct": "Human secretory DBH was purified from the culture medium of the neuroblastoma cell line SK-N-SH; endogenous in cells; host or cells: SK-N-SH neuroblastoma cells (enzyme secreted into the culture medium, purified on lentil lectin-sepharose)", "T1 sequence (P09172 40-617 limits assumed)": "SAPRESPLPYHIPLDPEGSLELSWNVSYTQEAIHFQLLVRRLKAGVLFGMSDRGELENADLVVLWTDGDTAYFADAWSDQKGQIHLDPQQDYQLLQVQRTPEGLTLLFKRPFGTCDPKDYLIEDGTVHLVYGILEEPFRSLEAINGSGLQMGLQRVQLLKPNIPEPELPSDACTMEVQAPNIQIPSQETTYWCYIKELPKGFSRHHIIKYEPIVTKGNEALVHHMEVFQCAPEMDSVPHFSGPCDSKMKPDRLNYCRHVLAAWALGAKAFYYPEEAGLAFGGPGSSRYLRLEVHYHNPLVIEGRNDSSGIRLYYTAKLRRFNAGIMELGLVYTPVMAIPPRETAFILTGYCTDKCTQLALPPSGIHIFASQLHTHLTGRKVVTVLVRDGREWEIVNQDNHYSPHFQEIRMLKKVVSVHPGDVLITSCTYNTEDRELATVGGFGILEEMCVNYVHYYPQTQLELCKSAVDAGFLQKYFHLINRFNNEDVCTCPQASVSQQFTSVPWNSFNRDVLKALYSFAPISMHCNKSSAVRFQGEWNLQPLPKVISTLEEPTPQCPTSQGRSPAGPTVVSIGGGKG", "assay": "DBH assay, conversion of tyramine to octopamine", "type": "biochemical", "method": "Bovine and human dopamine β-hydroxylase activity were assayed by measuring the conversion of tyramine to octopamine. Bovine adrenal dopamine β-hydroxylase was obtained from Sigma Chemicals (St Louis, Mo., USA) whereas human dopamine β-hydroxylase was purified from the culture medium of the neuroblastoma cell line SK-N-SH. The assay was performed at pH 5.2 and 32° C. in a medium containing 0.125 M NaAc, 10 mM fumarate, 0.5-2 μM CuSO4, 0.1 mg·ml^−1 catalase, 0.1 mM tyramine and 4 mM ascorbate. In a typical assay, 0.5-1 milliunits of enzyme were added to the reaction mixture and, subsequently, a substrate mixture containing catalase, tyramine and ascorbate was added to initiate the reaction (final volume of 200 μl). Samples were incubated with or without the appropriate concentration of nepicastat or Compound B at 37° C. for 30 to 40 minutes. The reaction was quenched by the stop solution containing 25 mM EDTA and 240 μM 3-hydroxytyramine (internal standard). The samples were analyzed for octopamine by reverse phase high pressure liquid chromatography (HPLC) using ultraviolet-detection at […]. The HPLC chromatography run was carried out at the flow rate of 1 ml·min^−1 using a LiChroCART 125-4 RP-18 column and isocratic elution with 10 mM acidic acid, 10 mM 1-heptane sulfonic acid, 12 mM tetrabutyl ammonium phosphate and 10% methanol. The remaining percent activity was calculated based on controls, corrected using internal standards and fitted to a non-linear four-parameter concentration-response curve.\nDBH activity was assayed by measuring the conversion of tyramine to octopamine. Bovine DBH from adrenal glands was obtained from Sigma Chemical Co (St Louis, Mo.). Human secretory DBH was purified from the culture medium of the neuroblastoma cell line SK-N-SH. The assay was performed at pH 5.2 and 32° C. in 0.125 M NaOAc, 10 mM fumarate, 0.5-2 μM CUSO4, 0.1 mg/mL catalase, 0.1 mM tyramine and 4 mM ascorbate. In a typical assay, 0.5-1 milliunits of enzyme were added to the reaction mixture and then a substrate mixture containing catalase, tyramine and ascorbate was added to initiate the reaction (final volume of 200 μL). Samples were incubated with or without the appropriate concentration of the inhibitor at 37° C. for 30-40 min. The reaction was quenched by the stop solution containing 25 mM EDTA and 240 μM 3-hydroxytyramine (internal standard). The samples were analyzed for octopamine by reverse phase HPLC using UV detection at […]. The remaining percent activity was calculated based on controls (without inhibitor), corrected using internal standards and fitted to a non-linear 4-parameter concentration-response curve to obtain IC50 values.\nBovine DBH from adrenal glands was obtained from Sigma Chemicals (St. Louis, Mo.). Human secretory DBH was purified from the culture medium of the neuroblastoma cell line SK-N-SH and was used to obtain the inhibition data. A lentil lectin-sepharose column containing 25 ml gel was prepared and equilibrated with 50 mM KH2PO4, pH 6.5, 0.5 M NaCl. The column was eluted with 35 ml of 10% methyl a, D-mannopyranoside in 50 mM KH2PO4, pH 6.5, 0.5 M NaCl at 0.5 ml/min. Fraction containing most enzymatic activities were pooled and concentrated with an Amicon stirred cell using a YM30 membrane. Methyl a, D-mannopyranoside was removed by buffer exchange with in 50 mM KH2PO4, pH 6.5, 0.1M NaCl. The concentrated enzyme solution was aliquoted and stored at −25° C.\nAn HPLC assay was used to measure DBH activity using tyramine and ascorbate as substrates. […]", "data": [{"smiles": "Fc1cc(F)cc(Cn2cc[nH]c2=S)c1", "note": "[SKF-102698, reference compound]", "values": [{"measurement": "IC50", "setting": "0.1 mM tyramine, 4 mM ascorbate, pH 5.2", "value": "85 ± 3.7", "unit": "nM"}]}, {"smiles": "Cl.NCc1c[nH]c(=S)n1[C@H]1CCc2c(F)cc(F)cc2C1", "note": "[nepicastat, (S)-5-Aminomethyl-1-(5,7-difluoro-1,2,3,4-tetrahydronaphth-2-yl)-2,3-dihydro-2-thioxo-1H-imidazole hydrochloride]", "values": [{"measurement": "selectivity for dopamine-β-hydroxylase over the other enzymes studied", "value": "> 1000", "unit": "fold"}, {"measurement": "potency of nepicastat relative to SKF-102698", "setting": "human DBH", "value": 9, "unit": "fold"}, {"measurement": "potency of nepicastat relative to SKF-102698", "setting": "human and bovine DBH", "value": "8-9 fold"}, {"measurement": "potency of nepicastat relative to the R-enantiomer", "setting": "human and bovine DBH", "value": "2-3 fold"}, {"measurement": "potency of nepicastat relative to Compound B", "setting": "human enzyme", "value": 2, "unit": "fold"}]}]}
